“And” between values parts separate entries of the source, which are not always exact repeats. Identical values can stand only once. Peptide text beside a SMILES is read from it.
Assays:
[1] = not given; remark: listed apart in the source
[2] = not given; remark: listed apart in the source
[3] = larger oligomers or early nucleated structures; 1 µM Cy5-SLP in 4 mM unlabeled SLP, PBS pH 7.4; early assembly phase, measured after 5 min of preparatory work
Procedure: To validate this hypothesis, we performed fluorescence correlation spectroscopy (FCS) measurements to study the diffusion properties of SLPs in the early phase of self-assembly. […] To explore these size differences in more detail, we fitted the FCS data with a higher-order fitting model. Maximum entropy method (MEM) was chosen to account for the polydispersity of the oligomers. Each condensed fraction was treated as one quasi-continuous distribution, so as to provide the widest data-complying size distribution (least chance of overinterpretation)[34].
The measurement concentration was 4 mM of SLPs in PBS (pH 7.4) of which 1 out of 4000 peptides was labeled with Cy5. The FCS autocorrelation curves were fitted with the maximum entropy method (MEM) for higher-resolution analysis on size distribution, indicated by the solid lines. c The size distribution of SLPs obtained from MEM analysis of the FCS measurements. The dashed line at D = 150 µm^2/s indicates the cut-off size between monomeric (D > 150) and oligomer (D < 150) populations.
Fluorescence time traces were obtained by focusing a 640-nm laser line through a water immersion objective lens (×60 Plan Apo VC, N.A. 1.2, Nikon, Japan) at ~50 µm above the bottom of the glass-bottom 96-well plate (Grainer Bio-one, Frickenhausen, Germany). […] After 5 min of preparatory work, 50 µl of sample was measured with confocal microscope (Nikon C1). […]

[4] = not given; remark: listed apart in the source
[5] = Solid-state NMR population profiling (dipolar CP and scalar INEPT spectra) of fibril and non-fibril assemblies; assay type: physicochemical; conditions: 4 mM, pH 7.4 in PBS, 3 days, 500 MHz, 10 kHz MAS, 280 K; for normalization scaling factor of the dipolar ssNMR spectrum relative to SLP1 (higher factor = lower fibrillization yield): dipolar CP spectra report on rigid 1D nanofibers
Procedure: As a next step, we hypothesized that higher-resolution methods might disclose further differences in the properties of the SLP assemblies. To examine our hypothesis, we profiled the SLP1–4 assemblies using ssNMR spectroscopy. Using the same conditions (4 mM, pH 7.4 in PBS for 3 days), we acquired the so-called dipolar cross-polarization (CP) ssNMR spectra and so-called scalar INEPT ssNMR spectra on isotopically (^13C, ^15N) labeled SLP assemblies (see “Methods”), which enables to quantify rigid and mobile populations of peptide assemblies in the systems[36] (Fig. 3b). While dipolar signals report on immobilized peptides in 1D assemblies, scalar spectra report on peptides with fast pico-to-nanosecond dynamics, which can either be monomeric peptides or micellar oligomers[16],[32]. We specifically labeled residues in the hydrophobic tail (Val1–2 and Leu6–7) that are responsible for the self-assembly. […] The intensity of the dipolar spectra correlates with the amount of rigid cross-β structure present in the system. We observe that the intensities of dipolar signal of SLP1 is larger than SLP2 (normalization scaling factor of 10, Fig. 3b) and SLP3 (normalization scaling factor of 25, Fig. 3b), which indicate the relative fibrillization yield of SLP1 > SLP2 > SLP3. […]
1D CP[48] and scalar[49] ssNMR experiments to probe rigid and mobile populations, respectively, were acquired at 11.7 T magnetic field (500 MHz (^1H frequency) with 10 kHz magic angle spinning (MAS) and 280 K sample temperature. 2D ^13C–^13C and 2D CαN for peptide assignments were also performed at similar conditions. 2D Ca(N)H experiments for ^15NT1rho relaxation studies were performed at 950 MHz magnetic field strength with 60 kHz. ^13C was detected in the indirect dimension because of spectral overlap in the ^15N dimension. The 2D ^13C–^13C PARIS[37] experiment with the CPMAS CryoProbe[39] to measure intermolecular peptide contacts was performed at 600 MHz and 12 kHz MAS using 700 ms magnetization transfer and a ^1H recoupling amplitude of 6 kHz.

[6] = Negative-staining TEM and AFM of the mesoscale structure of SLP assemblies; assay type: physicochemical; conditions: 4 mM, pH 7.4 in PBS
Procedure: Next, we investigated the downstream effect of the differences in size of oligomeric particles and β-sheet propensities on the supramolecular self-assembly. One of the pivotal events in defining supramolecular self-assembly is whether nucleation has taken place or not. This can be identified by the mesoscale structures of the assemblies after certain time of incubation, e.g., the formation of one-dimensional (1D) nanostructures is indicative that nucleation has taken place. We used negative-staining transmission electron microscopy (TEM) and atomic force microscopy (AFM) to compare SLPs that were assembled under the same preparation protocol (4 mM, pH 7.4 in phosphate-buffered saline (PBS) for 3 days). We could indeed detect markedly different mesoscale structures in these SLP systems (Figs. 3a and S1). […] Based on these mesoscale evidences, we can deduce that nucleation occurred in SLP1–3, however, not in SLP4.
Peptide assemblies were prepared by dissolving peptide powders in nine volumes of 10 mM sodium hydroxide in 1.5 ml Eppendorf tube. One volume of PBS (10×) was added to make sample of pH 7.4 ± 0.2 and a final concentration of 4 mM. Solution was vortexed for 5 s and incubated statically for 3 days at room temperature before proceeding for measurements.
Samples prepared at 4 mM were diluted tenfold with 1× PBS. Formvar/carbon-coated 400 mesh copper grid (Polysciences Inc.) was placed on top of a droplet of 20 μl of diluted samples. After 2-min incubation, the grid was washed three times with […] filtered mili-Q water and blotted dry with filter paper. Negative staining was performed for 1 min with 2% w/v uranyl acetate in water. Staining solution was blotted off with filter paper. […]
AFM micrographs were recorded using a Bruker MultiMode 8 (ScanAsyst Air silicon nitride probes, spring constant 0.4 N/m, nominal tip radius 2 nm) and post-processed by a plane subtraction and line alignment. Three different spots (one in main text, two in Fig. S3) were measured on the sample to confirm uniformity and get a comprehensive view of the sample’s features.

SMILES	nanofiber length	nanofiber diameter [1]	XRD cross-β reflection [2]	diffusion coefficient of the SLP population (MEM analysis of FCS) [3]	oligomer diffusion coefficient, fold smaller than SLP3–4 [4]	normalization scaling factor of the dipolar ssNMR spectrum relative to SLP1 (higher factor = lower fibrillization yield) [5]	mesoscale structure of the assemblies (TEM, AFM) ([6]; 3 days static at room temperature)	diameter of the assembled nanostructures ([6]; TEM/AFM, 3 days)	nucleation event deduced from mesoscale structure ([6]; TEM/AFM, 3 days)	dipolar ssNMR signals (immobile assemblies) [5]
CC[C@H](C)[C@H](NC(=O)[C@@H](NC(=O)[C@@H](NC(=O)[C@@H](NC(=O)[C@@H](NC(C)=O)C(C)C)C(C)C)C(C)C)[C@@H](C)O)C(=O)N[C@@H](CC(C)C)C(=O)N[C@@H](CC(C)C)C(=O)N[C@@H](CCC(=O)O)C(=O)N[C@@H](CCC(=O)O)C(=O)O [SLP1] (Ac-VVVTILLEE-OH)	> 1000 nm	10 nm	4.7 Å	0.1–1 µm^2/s	10 times and 10 fold					
CC(=O)N[C@H](C(=O)N[C@H](C(=O)N[C@H](C(=O)N[C@H](C(=O)N[C@@H](CC(C)C)C(=O)N[C@@H](CC(C)C)C(=O)N[C@@H](CC(C)C)C(=O)N[C@@H](CCC(=O)O)C(=O)N[C@@H](CCC(=O)O)C(=O)O)[C@@H](C)O)C(C)C)C(C)C)C(C)C [SLP2] (Ac-VVVTLLLEE-OH)	> 1000 nm		4.7 Å			10				
CC[C@H](C)[C@H](NC(=O)[C@@H](NC(=O)[C@@H](NC(=O)[C@@H](NC(=O)[C@@H](NC(C)=O)C(C)C)C(C)C)C(C)C)[C@@H](C)O)C(=O)N[C@@H](CC(C)C)C(=O)N[C@@H](CC(C)C)C(=O)N[C@@H](CCC(=O)O)C(=O)N[C@@H](CCC(=O)O)C(=O)N[C@@H](CCC(=O)O)C(=O)O [SLP3] (Ac-VVVTILLEEE-OH)	> 1000 nm	10 nm	4.7 Å			25				
CC(=O)N[C@H](C(=O)N[C@H](C(=O)N[C@H](C(=O)N[C@H](C(=O)N[C@@H](CC(C)C)C(=O)N[C@@H](CC(C)C)C(=O)N[C@@H](CC(C)C)C(=O)N[C@@H](CCC(=O)O)C(=O)N[C@@H](CCC(=O)O)C(=O)N[C@@H](CCC(=O)O)C(=O)O)[C@@H](C)O)C(C)C)C(C)C)C(C)C [SLP4] (Ac-VVVTLLLEEE-OH)							polydisperse zero-dimensional nanostructures	10–60 nm	no nucleation event has taken place	absent

From paper PMC9814929, “Control over the fibrillization yield by varying the oligomeric nucleation propensities of self-assembling peptides” (Communications Chemistry, 2020)
